In ChEMBL document CHEMBL3632505, “Forsythoneosides A-D, Neuroprotective Phenethanoid and Flavone Glycoside Heterodimers from the Fruits of Forsythia suspensa” (2015):

Legend:
PC-12 [1] = test: Neuroprotective activity against rotenone-induced cell damage in rat PC12 cells assessed as cell viability at 10 uM after 48 hrs by MTT assay (reference value: 53.9 +/- 7.1%); type: functional; settings: for viability at 10 µM: Rattus norvegicus, PC-12, 48 h, read-out: Activity
PC-12 [2] = test: Neuroprotective activity against rotenone-induced cell damage in rat PC12 cells assessed as increase in cell viability after 48 hrs by MTT assay; type: functional, cell-based
PC-12 [3] = test: Neuroprotective activity against rotenone-induced cell damage in rat PC12 cells assessed as cell viability at 1 uM after 48 hrs by MTT assay (reference value: 53.9 +/- 7.1%); type: functional; settings: for viability at 1 µM: Rattus norvegicus, PC-12, 48 h, read-out: Activity
PC-12 [4] = test: Neuroprotective activity against rotenone-induced cell damage in rat PC12 cells assessed as cell viability at 0.1 uM after 48 hrs by MTT assay (reference value: 53.9 +/- 7.1%); type: functional; settings: for viability at 0.1 µM: Rattus norvegicus, PC-12, 48 h, read-out: Activity

Row | Compound | viability at 10 µM (PC-12 [1]) [%] | Activity (PC-12 [2]) | viability at 1 µM (PC-12 [3]) [%] | viability at 0.1 µM (PC-12 [4]) [%] | also measured
1 | C[C@@H]1O[C@@H](OC[C@H]2O[C@@H](OCCc3ccc(O)c(O)c3)[C@H](O)[C@@H](O)[C@@H]2OC(=O)/C=C/c2ccc(O)c(O)c2)[C@H](O)[C@H](O)[C@H]1O [FORSYTHIASIDE] | 60.4 | – | – | – | –
2 | O=C(/C=C/c1ccc(O)c(O)c1)O[C@H]1[C@H](O)[C@@H](O)[C@H](OCCc2ccc(O)c(O)c2)O[C@@H]1CO[C@@H]1OC[C@@H](O)[C@H](O)[C@H]1O | 56.2 | – | – | – | –
3 | C[C@@H]1O[C@@H](OC[C@H]2O[C@@H](Oc3c(-c4ccc(O)c(O)c4)oc4c(-c5cc(O)c(O)cc5CCO[C@@H]5O[C@H](CO[C@@H]6O[C@@H](C)[C@H](O)[C@@H](O)[C@H]6O)[C@@H](OC(=O)/C=C/c6ccc(O)c(O)c6)[C@H](O)[C@H]5O)c(O)cc(O)c4c3=O)[C@H](O)[C@@H](O)[C@@H]2O)[C@H](O)[C@H](O)[C@H]1O (stereo in doubt; 3) [listing 1 of 2 here] | – | Dose-dependent effect | – | – | –
4 | C[C@@H]1O[C@@H](OC[C@H]2O[C@@H](Oc3c(-c4ccc(O)c(O)c4)oc4c(-c5cc(O)c(O)cc5CCO[C@@H]5O[C@H](CO[C@@H]6O[C@@H](C)[C@H](O)[C@@H](O)[C@H]6O)[C@@H](OC(=O)/C=C/c6ccc(O)c(O)c6)[C@H](O)[C@H]5O)c(O)cc(O)c4c3=O)[C@H](O)[C@@H](O)[C@@H]2O)[C@H](O)[C@H](O)[C@H]1O (stereo in doubt; 3) [listing 2 of 2 here] | – | – | 64 | 54.3 | Activity (PC-12 [1]): 93.2%
5 | C[C@@H]1O[C@@H](OC[C@H]2O[C@@H](Oc3c(-c4ccc(O)c(O)c4)oc4c(-c5cc(O)c(O)cc5CCO[C@@H]5O[C@H](CO[C@@H]6O[C@@H](C)[C@H](O)[C@@H](O)[C@H]6O)[C@@H](OC(=O)/C=C/c6ccc(O)c(O)c6)[C@H](O)[C@H]5O)c(O)cc(O)c4c3=O)[C@H](O)[C@@H](O)[C@@H]2O)[C@H](O)[C@H](O)[C@H]1O (stereo in doubt; 4) [listing 1 of 2 here] | 96.2 | – | – | – | Activity (PC-12 [3]): 75.5%; Activity (PC-12 [4]): 67.9%
6 | C[C@@H]1O[C@@H](OC[C@H]2O[C@@H](Oc3c(-c4ccc(O)c(O)c4)oc4cc(O)cc(O)c4c3=O)[C@H](O)[C@@H](O)[C@@H]2O)[C@H](O)[C@H](O)[C@H]1O [RUTIN] | 67.9 | – | – | – | –
7 | C[C@@H]1O[C@@H](OC[C@H]2O[C@@H](Oc3c(-c4ccc(O)c(O)c4)oc4c5c(cc(O)c4c3=O)Oc3cc(O)c(O)cc3[C@@H]5CO[C@@H]3O[C@H](CO[C@@H]4O[C@@H](C)[C@H](O)[C@@H](O)[C@H]4O)[C@@H](OC(=O)/C=C/c4ccc(O)c(O)c4)[C@H](O)[C@H]3O)[C@H](O)[C@@H](O)[C@@H]2O)[C@H](O)[C@H](O)[C@H]1O | 91.2 | Dose-dependent effect | 75 | 70.1 | –
8 | C[C@@H]1O[C@@H](OC[C@H]2O[C@@H](Oc3c(-c4ccc(O)c(O)c4)oc4c5c(cc(O)c4c3=O)Oc3cc(O)c(O)cc3[C@H]5CO[C@@H]3O[C@H](CO[C@@H]4O[C@@H](C)[C@H](O)[C@@H](O)[C@H]4O)[C@@H](OC(=O)/C=C/c4ccc(O)c(O)c4)[C@H](O)[C@H]3O)[C@H](O)[C@@H](O)[C@@H]2O)[C@H](O)[C@H](O)[C@H]1O | 81.1 | Dose-dependent effect | 59.2 | 55.8 | –
9 | COC1=C(OC)C(=O)C(C/C=C(\C)CC/C=C(\C)CC/C=C(\C)CC/C=C(\C)CC/C=C(\C)CC/C=C(\C)CC/C=C(\C)CC/C=C(\C)CC/C=C(\C)CCC=C(C)C)=C(C)C1=O [UBIDECARENONE] | 59 | – | – | – | –
10 | C[C@@H]1O[C@@H](OC[C@H]2O[C@@H](Oc3c(-c4ccc(O)c(O)c4)oc4c(-c5cc(O)c(O)cc5CCO[C@@H]5O[C@H](CO[C@@H]6O[C@@H](C)[C@H](O)[C@@H](O)[C@H]6O)[C@@H](OC(=O)/C=C/c6ccc(O)c(O)c6)[C@H](O)[C@H]5O)c(O)cc(O)c4c3=O)[C@H](O)[C@@H](O)[C@@H]2O)[C@H](O)[C@H](O)[C@H]1O (stereo in doubt; 4) [listing 2 of 2 here] | – | Dose-dependent effect | – | – | –
